Test results: PubChem BioAssay (NCI)
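Exposure lasted 48 hours, with cells grown in 96-well plates and compounds tested at five concentrations. TGI marks complete inhibition of growth.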

Experiments:
Assay in all cases: growth of human tumour cells (NCI), 48 h
SW-620 colon = tested on: SW-620 colon
HCT-15 colon = tested on: HCT-15 colon
M14 melanoma = tested on: M14 melanoma
NCI-H226 lung = tested on: NCI-H226 lung
IGROV1 ovarian = tested on: IGROV1 ovarian
SK-MEL-2 melanoma = tested on: SK-MEL-2 melanoma
KM12 colon = tested on: KM12 colon
OVCAR-8 ovarian = tested on: OVCAR-8 ovarian
TK-10 renal = tested on: TK-10 renal
786-0 renal = tested on: 786-0 renal
OVCAR-4 ovarian = tested on: OVCAR-4 ovarian
SF-268 CNS = tested on: SF-268 CNS
UO-31 renal = tested on: UO-31 renal
HCT-116 colon = tested on: HCT-116 colon
SR leukemia = tested on: SR leukemia
HOP-92 NSCLC = tested on: HOP-92 NSCLC

SMILES	TGI (SW-620 colon) [µM]	TGI (HCT-15 colon) [µM]	TGI (M14 melanoma) [µM]	TGI (NCI-H226 lung) [µM]	TGI (IGROV1 ovarian) [µM]	TGI (SK-MEL-2 melanoma) [µM]	TGI (KM12 colon) [µM]	TGI (OVCAR-8 ovarian) [µM]	TGI (TK-10 renal) [µM]	TGI (786-0 renal) [µM]	TGI (OVCAR-4 ovarian) [µM]	TGI (SF-268 CNS) [µM]	TGI (UO-31 renal) [µM]	TGI (HCT-116 colon) [µM]	TGI (SR leukemia) [µM]	TGI (HOP-92 NSCLC) [µM]
CC(O)C1(O)C(O)CC(OC2c3cc4c(c(O)c3[C@@H]3C[C@@]2(C)OC32C=c3cc[nH]c3=N2)C(=O)c2cccc(O)c2C4=O)OC1C (stereo not given in full)	5.96	6.41	2.73	3.17	3.22	3.11	3.77	4.75	7.32	4.98	7.2	4.38	8.44	3.31	2.36	7.44
CC(=O)n1nc(-c2[nH]c(C)c(-c3nn(C(C)=O)c(=S)o3)c2C)oc1=S	> 100	> 100	> 100	> 100	> 100	> 100	> 100	> 100	> 100	> 100	> 100	> 100	> 100	> 100	> 100	> 100
O=C1NC(=Nc2ccccc2Cl)N/C1=C\c1c(Cl)cccc1Cl	> 100	> 100	> 100	> 100	> 100	> 100	> 100	> 100	71.7	> 100	49.3	> 100	66.3	67.1	48	61.8
O=C(N[C@H](CO)[C@H](O)c1ccc([N+](=O)[O-])cc1)C(Cl)Cl	> 100	> 100	> 100	> 100	> 100	> 100	> 100	> 100	> 100	> 100	> 100	> 100	> 100	> 100	> 100	> 100
CSc1ccccc1NC1=NCCO1	> 100	> 100	> 100	> 100	> 100	> 100	> 100	> 100	> 100	> 100	> 100	> 100	> 100	> 100	> 100	> 100
CSc1ncc2c(C#N)c3n(C)c4ccccc4n3c(=O)c2n1	> 100	> 100	> 100	> 100	> 100	> 100	> 100	> 100	> 100	> 100	> 100	> 100	> 100	> 100	> 100	> 100
C=C(C)C1Cc2c(cc3c(c2O)c(=O)c2ccccc2n3C)O1 (stereo not given)	5.68	9.93	10.6	6.77	4.16	26.7	5.75	5.67	27	2.91	22.3	14.2	4.01	4.94	4.95	21.3
Cc1cc(N(CCC#N)CCC#N)ccc1/C(Sc1ccccc1)=C(\NC(=O)/C=C/c1ccccc1)C(=O)Sc1ccccc1	15.3	26.4	6.3	10.7	2.78	16.6	15.3	18.6	25.2	8.8	18.6	3.81	6.15	9.79	> 31.5	15
COC(=O)c1cc(C#N)[nH]c1-c1ccc(Br)s1	29.9	28	22.9	26.3	20.9	18.6	> 50	27.1	25.7	27.7	36.7	24.2	15.6	26.3	> 51.9	15.3
CC(C)=NC(C(=O)O)C(C)(C)S (stereo not given)	> 100	> 100	> 100	> 100	> 100	> 100	> 100	> 100	> 100	> 100	> 100	> 100	> 100	> 100	> 100	> 100
COc1ccc(/C(=N/Nc2nc3ccccc3n2Cc2ccccc2)C(=O)O)cc1	> 100	> 100	38.9	63	40.7	> 100	> 100	> 100	> 100	42.3	62.2	63.2	76.5	> 100	9.88	49.1
NN/C(=N\S(=O)(=O)c1cc(S(=O)(=O)c2ccccc2)cs1)Nc1ccc(Cl)cc1	> 100	> 100	48.1	> 100	> 100	38.2	89.6	> 100	81.7	> 100	66.5	89	> 100	74.6	48.5	> 100
COC1=CC(=O)C2=C(C1=O)[C@H]1CC[C@]3(C)C(=O)CC[C@H]3[C@@H]1CC2	67.7	> 100	> 100	49.7	44.5	36.3	> 100	33.1	> 100	53.2	29.5	46.3	56.8	34.1	> 100	35.8
CN1CCOC1(C)c1ccccc1 (stereo not given)	> 100	> 100	> 100	> 100	> 100	> 100	> 100	> 100	> 100	> 100	> 100	> 100	> 100	> 100	> 100	> 100
O=[N+]([O-])c1ccccc1S(=O)(=O)c1cccc2c1NCCC2	> 100	> 100	> 100	> 100	> 100	> 100	> 100	> 100	> 100	> 100	> 100	> 100	> 100	> 100	> 100	> 100
O=C(NCCc1ccccn1)c1ccc2cc(C(=O)N3CC(CCl)c4ccc([N+](=O)[O-])cc43)[nH]c2c1 (stereo not given)	> 100	> 100	> 100	> 100	> 100	> 100	> 100	> 86.9	66.7	> 63	48.3	> 100	> 92.8	> 100	> 100	52.1
CC1=CP(=O)(OC(C)C)C=C(C)C1=C(Cl)Cl (stereo not given)	> 100	> 100	> 100	87.2	> 100	59	53.7	> 100	> 100	> 100	> 100	> 100	27.2	70.5	> 100	54.6
O=C(O[C@H](/C=C/c1ccccc1)P1(=O)N(Cc2ccccc2)[C@H]2CCCC[C@@H]2N1Cc1ccccc1)c1ccccc1	> 100	> 100	> 100	7.85	18.6	6.19	18.1	> 100	> 100	> 100	6.19	> 100	38.3	17	> 100	5.86
O=C1CC(=O)NC(=NN2C(=O)CSC2c2ccc(Cl)cc2)N1 (stereo not given)	> 100	> 100	> 100	> 100	> 100	> 100	> 100	> 100	> 100	> 100	> 100	> 100	> 100	> 100	> 100	> 100
O=C(Cc1csc2[n+]1C(=O)/C(=C/c1ccc(Cl)cc1)S2)Nc1ccccc1	> 100	90.6	> 100	49.6	> 100	37	82.8	> 100	87.7	90.9	> 100	78	> 100	42.5	> 100	78.4
